Test results reported in paper PMC8031368 (ACS chemical biology, 2020).
Blank lines part the entries; values can stand above or below the molecule they belong to.

Experiments:
[1] = Dynamic PET scan over 60 min, time activity curves; type: in vivo; conditions: male C57Bl6/J mice
[2] = Determination of partition coefficient; type: physicochemical; conditions: 1-octanol / PBS pH 7.4
[3] = target: T1, GR (Mus musculus, UniProt P06537); experiment: 18F-YJH08 uptake in adrenalectomized mice
T1 sequence (P06537 1-792): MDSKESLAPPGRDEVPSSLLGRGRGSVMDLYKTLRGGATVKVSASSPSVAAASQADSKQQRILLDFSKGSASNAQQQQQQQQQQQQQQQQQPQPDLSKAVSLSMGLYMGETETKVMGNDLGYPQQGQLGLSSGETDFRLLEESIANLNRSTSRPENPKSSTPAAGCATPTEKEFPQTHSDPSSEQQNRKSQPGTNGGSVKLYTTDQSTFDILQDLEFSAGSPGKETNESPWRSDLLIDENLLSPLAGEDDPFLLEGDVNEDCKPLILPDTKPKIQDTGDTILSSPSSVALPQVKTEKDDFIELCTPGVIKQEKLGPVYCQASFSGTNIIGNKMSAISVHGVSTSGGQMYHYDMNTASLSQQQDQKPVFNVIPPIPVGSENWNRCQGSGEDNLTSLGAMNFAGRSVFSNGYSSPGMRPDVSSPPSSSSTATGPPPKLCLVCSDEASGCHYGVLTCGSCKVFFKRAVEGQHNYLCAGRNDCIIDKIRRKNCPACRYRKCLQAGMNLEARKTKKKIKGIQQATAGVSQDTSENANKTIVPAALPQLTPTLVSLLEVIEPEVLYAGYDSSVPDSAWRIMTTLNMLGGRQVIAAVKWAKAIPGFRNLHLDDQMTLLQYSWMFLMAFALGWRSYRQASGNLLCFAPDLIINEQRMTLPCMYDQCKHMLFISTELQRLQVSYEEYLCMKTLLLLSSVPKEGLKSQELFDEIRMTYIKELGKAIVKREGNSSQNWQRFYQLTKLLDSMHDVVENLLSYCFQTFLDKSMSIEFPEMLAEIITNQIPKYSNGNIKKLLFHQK

[4] = target: T1, GR; experiment: 18F-YJH08 PET/CT in adipocyte specific GR knockout mice; type: in vivo; conditions: vs wild type litter mate, supraspinal and scapular brown fat depots
[5] = Biodistribution study post mortem; type: in vivo; conditions: C57Bl6/J mice, mean ± SD
[6] = tested on: prostate cancer mouse models; conditions: cited from earlier work
[7] = tested on: GR in MDA MB 231; experiment: Immunoblot of GR in MDA MB 231 cells treated with JG231; type: cell-based, human; conditions: 24 h
[8] = tested on: GR in MCF7; experiment: Immunoblot of GR in MCF7 cells treated with JG231; type: cell-based, human; conditions: 24 h
[9] = tested on: GR; experiment: Immunoblot of GR in tissues of JG231 treated mice; type: in vivo; conditions: JG231 4 mg/kg/day for 3 days intraperitoneally
[10] = tested on: GR target genes (GILZ, FKBP5, Per1) in DU145 cells; experiment: Real time PCR of GR target genes in DU145 cells; type: cell-based, human; conditions: DU145 cells, dexamethasone 1 μM, 6 h exposure

mechanism of clearance ([1]; liver uptake and washout): hepatobiliary
partition coefficient (log P) [2]: 2.78
tissue uptake in adx mice compared to intact mice [3]: higher
uptake in fat depots of GR^fl/fl, Adipoq-Cre knockout mice [4]: significantly reduced
uptake in adrenal gland ([5]; 30 min after injection): 20.02 ± 2.21 % ID/g
uptake in adrenal gland ([5]; 60 min after injection): 9.43 ± 0.08 % ID/g
uptake in adrenal gland ([5]; 90 min after injection): 5.72 ± 2.32 % ID/g
uptake in blood ([5]; 30 min after injection): 0.85 ± 0.1 % ID/g
uptake in blood ([5]; 60 min after injection): 0.57 ± 0.02 % ID/g
uptake in blood ([5]; 90 min after injection): 0.49 ± 0.06 % ID/g
uptake in bone ([5]; 30 min after injection): 1.11 ± 0.15 % ID/g
uptake in bone ([5]; 60 min after injection): 0.61 ± 0.15 % ID/g
uptake in bone ([5]; 90 min after injection): 0.58 ± 0.16 % ID/g
uptake in brain ([5]; 30 min after injection): 1.68 ± 0.14 % ID/g
uptake in brain ([5]; 60 min after injection): 1.33 ± 0.06 % ID/g
uptake in brain ([5]; 90 min after injection): 0.97 ± 0.03 % ID/g
uptake in heart ([5]; 30 min after injection): 3.04 ± 0.75 % ID/g
uptake in heart ([5]; 60 min after injection): 1.33 ± 0.21 % ID/g
uptake in heart ([5]; 90 min after injection): 0.92 ± 0.14 % ID/g
uptake in kidney ([5]; 30 min after injection): 4.5 ± 0.5 % ID/g
uptake in kidney ([5]; 60 min after injection): 2.35 ± 0.34 % ID/g
uptake in kidney ([5]; 90 min after injection): 1.86 ± 0.26 % ID/g
uptake in large intestine ([5]; 30 min after injection): 1.33 ± 0.35 % ID/g
uptake in large intestine ([5]; 60 min after injection): 1.23 ± 0.43 % ID/g
uptake in large intestine ([5]; 90 min after injection): 6.67 ± 4.73 % ID/g
uptake in liver ([5]; 30 min after injection): 11.03 ± 0.89 % ID/g
uptake in liver ([5]; 60 min after injection): 7.7 ± 0.69 % ID/g
uptake in liver ([5]; 90 min after injection): 8.43 ± 1.38 % ID/g
uptake in lung ([5]; 30 min after injection): 2.65 ± 0.19 % ID/g
uptake in lung ([5]; 60 min after injection): 2.02 ± 0.29 % ID/g
uptake in lung ([5]; 90 min after injection): 1.39 ± 0.1 % ID/g
uptake in muscle ([5]; 30 min after injection): 1.49 ± 0.2 % ID/g
uptake in muscle ([5]; 60 min after injection): 1.15 ± 0.03 % ID/g
uptake in muscle ([5]; 90 min after injection): 0.85 ± 0.18 % ID/g
uptake in pancreas ([5]; 30 min after injection): 4.5 ± 0.15 % ID/g
uptake in pancreas ([5]; 60 min after injection): 2.63 ± 0.05 % ID/g
uptake in pancreas ([5]; 90 min after injection): 1.9 ± 0.41 % ID/g
uptake in small intestine ([5]; 30 min after injection): 19.05 ± 3.27 % ID/g
uptake in small intestine ([5]; 60 min after injection): 8.61 ± 2.68 % ID/g
uptake in small intestine ([5]; 90 min after injection): 7.67 ± 2.34 % ID/g
uptake in spleen ([5]; 30 min after injection): 1.59 ± 0.13 % ID/g
uptake in spleen ([5]; 60 min after injection): 0.83 ± 0.02 % ID/g
uptake in spleen ([5]; 90 min after injection): 0.74 ± 0.15 % ID/g
uptake in stomach ([5]; 30 min after injection): 1.88 ± 0.96 % ID/g
uptake in stomach ([5]; 60 min after injection): 1.63 ± 0.92 % ID/g
uptake in stomach ([5]; 90 min after injection): 2.61 ± 1.54 % ID/g
uptake in supraspinal BAT ([5]; 30 min after injection): 14.41 ± 3.42 % ID/g
uptake in supraspinal BAT ([5]; 60 min after injection): 16.4 ± 4.93 % ID/g
uptake in supraspinal BAT ([5]; 90 min after injection): 14.58 ± 1.91 % ID/g
SMILES: COc1cccc2c1-c1ccc3c(c1C(Cc1ccc([18F])cc1)O2)C(C)=CC(C)(C)N3 (centres unmarked) [18F-YJH08, ^18F-5-(4-fluorobenzyl)-10-methoxy-2,2,4-trimethyl-2,5-dihydro-1H-chromeno[3,4-f]quinoline]
radiotracer uptake in the bone (stability to radiodefluorination) [1]: low and approximately equivalent to muscle

SMILES: CCn1c(=O)/c(=C2\Sc3cc(Cl)ccc3N2C)s/c1=C\c1scc[n+]1Cc1ccc(Br)s1.[Cl-] [JG231]
antitumor activity [6]: antitumor activity
GR degradation (immunoblot) [7]: degrades GR
GR degradation (immunoblot) [8]: degrades GR
change in GR levels in kidneys, liver, and muscle [9]: no change
reduction in GR expression levels in brown fat [9]: ~ 50%

SMILES: C[C@@H]1C[C@H]2[C@@H]3CCC4=CC(=O)C=C[C@]4(C)[C@@]3(F)[C@@H](O)C[C@]2(C)[C@@]1(O)C(=O)CO [dexamethasone, reference compound]
induction of Per1 [10]: induced
